Tested on: not listed separately
Test: Partition coefficient (logP)
Assay type: physicochemical
Conditions: octanol/water

| logP | SMILES |
| --- | --- |
| 2.7 | COC[C@H]1CN(c2ccc(OCC[C@@H](C)OC)cc2)C(=O)O1 |
| 0.77 | COC[C@H]1CN(c2ccc(OCCO)cc2)C(=O)O1 |
| 1.84 | COC[C@H]1CN(c2ccc(OCCCCO)cc2)C(=O)O1 |
| 1.13 | COC[C@H]1CN(c2ccc(CCO)cc2)C(=O)O1 |
| 1.37 | COC[C@H]1CN(c2ccc(OCCC(C)=O)cc2)C(=O)O1 |
| 2.27 | COC[C@H]1CN(c2ccc(OCCCC(C)O)cc2)C(=O)O1 (stereo partly drawn) |
| 3.03 | C=C(C)CCOc1ccc(N2C[C@H](COC)OC2=O)cc1 |
| 1.17 | COC[C@H]1CN(c2ccc(OCC(C)O)cc2)C(=O)O1 (stereo partly drawn) |
| 2.48 | COC[C@H]1CN(c2ccc(OCC[C@@H](O)C(F)(F)F)cc2)C(=O)O1 [BEFLOXATONE] |
| 1.27 | COC[C@H]1CN(c2ccc(CCCO)cc2)C(=O)O1 |
| 1.71 | COC[C@H]1CN(c2ccc(OCC[C@@H](C)O)cc2)C(=O)O1 |

Tested on: not listed separately
Test: Logarithm of capacity factor was determined
Assay type: ADME
Conditions: not given

| Log kw | SMILES |
| --- | --- |
| 2.21 | COC[C@H]1CN(c2ccc(OCC[C@@H](C)OC)cc2)C(=O)O1 |
| 1 | COC[C@H]1CN(c2ccc(OCCO)cc2)C(=O)O1 |
| 1.58 | COC[C@H]1CN(c2ccc(OCCCCO)cc2)C(=O)O1 |
| 1 | COC[C@H]1CN(c2ccc(CCO)cc2)C(=O)O1 |
| 1.43 | COC[C@H]1CN(c2ccc(OCCC(C)=O)cc2)C(=O)O1 |
| 1.88 | COC[C@H]1CN(c2ccc(OCCCC(C)O)cc2)C(=O)O1 (stereo partly drawn) |
| 3.08 | C=C(C)CCOc1ccc(N2C[C@H](COC)OC2=O)cc1 |
| 1.17 | COC[C@H]1CN(c2ccc(OCC(C)O)cc2)C(=O)O1 (stereo partly drawn) |
| 2.45 | COC[C@H]1CN(c2ccc(OCC[C@@H](O)C(F)(F)F)cc2)C(=O)O1 [BEFLOXATONE] |
| 1.3 | COC[C@H]1CN(c2ccc(CCCO)cc2)C(=O)O1 |
| 1.6 | COC[C@H]1CN(c2ccc(OCC[C@@H](C)O)cc2)C(=O)O1 |

Molecular target: T1, Amine oxidase [flavin-containing] A (Homo sapiens, UniProt P21397)
T1 sequence (P21397 whole entry): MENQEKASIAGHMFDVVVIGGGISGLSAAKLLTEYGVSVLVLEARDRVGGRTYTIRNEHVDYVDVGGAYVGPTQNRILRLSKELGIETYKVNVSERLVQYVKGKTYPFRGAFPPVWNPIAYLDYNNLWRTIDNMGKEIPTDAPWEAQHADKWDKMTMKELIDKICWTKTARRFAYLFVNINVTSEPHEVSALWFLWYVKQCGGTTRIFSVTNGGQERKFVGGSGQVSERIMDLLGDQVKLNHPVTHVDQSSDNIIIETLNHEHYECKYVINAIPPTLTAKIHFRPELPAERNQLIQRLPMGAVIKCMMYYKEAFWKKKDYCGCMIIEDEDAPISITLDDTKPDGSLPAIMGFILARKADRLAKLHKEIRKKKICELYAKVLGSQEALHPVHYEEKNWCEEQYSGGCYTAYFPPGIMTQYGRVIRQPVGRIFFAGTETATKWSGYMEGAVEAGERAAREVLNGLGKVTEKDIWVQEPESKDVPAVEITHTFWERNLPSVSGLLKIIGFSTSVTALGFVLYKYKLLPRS
Test: Monoamine oxidase A inhibitory potency
Conditions: read-out: KiA

| Ki | SMILES |
| --- | --- |
| 170 nM | COC[C@H]1CN(c2ccc(OCC[C@@H](C)OC)cc2)C(=O)O1 |
| 390 nM | COC[C@H]1CN(c2ccc(OCCO)cc2)C(=O)O1 |
| 29 nM | COC[C@H]1CN(c2ccc(OCCCCO)cc2)C(=O)O1 |
| 80 nM | COC[C@H]1CN(c2ccc(CCO)cc2)C(=O)O1 |
| 46 nM | COC[C@H]1CN(c2ccc(OCCC(C)=O)cc2)C(=O)O1 |
| 13 nM | COC[C@H]1CN(c2ccc(OCCCC(C)O)cc2)C(=O)O1 (stereo partly drawn) |
| 28 nM | C=C(C)CCOc1ccc(N2C[C@H](COC)OC2=O)cc1 |
| 220 nM | COC[C@H]1CN(c2ccc(OCC(C)O)cc2)C(=O)O1 (stereo partly drawn) |
| 3.5 nM | COC[C@H]1CN(c2ccc(OCC[C@@H](O)C(F)(F)F)cc2)C(=O)O1 [BEFLOXATONE] |
| 1.6 nM | COC[C@H]1CN(c2ccc(CCCO)cc2)C(=O)O1 |
| 6.5 nM | COC[C@H]1CN(c2ccc(OCC[C@@H](C)O)cc2)C(=O)O1 |

Source: ChEMBL document CHEMBL1130827, “Molecular lipophilicity potential by CLIP, a reliable tool for the description of the 3D distribution of lipophilicity: application to 3-phenyloxazolidin-2-one, a prototype series of reversible MAOA inhibitors” (Bioorg Med Chem Lett, 1998)
